In patent US8969516B2, “Method of hydrolysis of peptide bond” (priority 2006, dated 2015):

Columns and labels:
[1] = MALDI-TOF screening of Ni^2+ dependent hydrolysis in a combinatorial peptide library; format: physicochemical; settings: Ni^2+ 2 mM, pH 8.2, 10 mM Tris, score=24/tm
Outline: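 MALDI-TOF read-out: appearance of Ser/Thr-X-His-Z-Lys-Phe-Leu-NH2 product signals, plus loss of substrate signals, checked by eye at 2, 4, 6, 8 h. Conditions: 1 mM peptide mixture, 2 mM Ni2+, 10 mM Tris pH 8.2, 37 or 45 °C.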

[2] = Dependence of rate of hydrolysis of the Ala-Ser bond on buffer and Ni^2+ excess (HPLC); format: physicochemical; settings: pH 8.2, 1 mM peptide; for κ ± S.D., 1st order rate constant for the hydrolysis: 25° C., 1.2 mM Ni^2+
Description: The title peptide was synthesised according to a standard Fmoc protocol (Fields, Meth. Enzymol. Vol. 289). The pH dependence of the formation of the active complex of the title peptide, represented by the structure (III) in Scheme 2, was determined by potentiometry at 25° C., as described in Krezel et al., Chem. Res. Toxicol. 2003, 16, 855-864. The rate of peptide hydrolysis was studied by HPLC (as in Example 2) in a series of mixed phosphate/Tris/Borax buffers (40/20/20 mM) at 25° C. and pH between 6 and 12.5, with peptide and Ni^2+ concentrations equal to 1 mM. As presented in FIG. 1, the rate of hydrolysis matched the formation of the active complex quantitatively.
The dependence of the rate of hydrolysis on the buffer used was studied at 25° C. separately in 20 mM Tris, Hepes and sodium phosphate buffers, all at pH 8.2, for 1 mM peptide and 1.2 mM Ni^2+.
The dependence of the rate of hydrolysis of the title peptide on the molar ratio of Ni^2+ to peptide was studied at 25° C. and pH 8.2, for 1 mM peptide. The reaction rate constant k was 4.3±0.2 s^−1×10^−5 for the Ni^2+ to peptide molar ratio of 1.2 and 4.72±0.01 s^−1×10^−5 for the Ni^2+ to peptide molar ratio of 5.

[3] = CH3CO-Gly-Ala-Thr-X-His-Z-Lys-Phe-Leu-NH2 library, 37° C.
[4] = CH3CO-Gly-Ala-Thr-X-His-Z-Lys-Phe-Leu-NH2 library, 45° C.

Substance	hydrolysis score from MALDI-TOF screening [1, 3]	hydrolysis score from MALDI-TOF screening [1, 4]	further results
Ac-GASRHWKFL-NH2 [SRHW, CH3CO-Gly-Ala-Ser-Arg-His-Trp-Lys-Phe-Leu-NH2]			hydrolysis score from MALDI-TOF screening ([1]; CH3CO-Gly-Ala-Ser-X-His-Z-Lys-Phe-Leu-NH2 library, 37° C.): 12 (a score of 12, if it was seen to be partially hydrolysed at 2 hours); hydrolysis score from MALDI-TOF screening ([1]; CH3CO-Gly-Ala-Ser-X-His-Z-Lys-Phe-Leu-NH2 library, 45° C.): 12 (a score of 12, if it was seen to be partially hydrolysed at 2 hours); κ ± S.D., 1st order rate constant for the hydrolysis ([2]; 20 mM Hepes): 5.9 ± 0.8 s^−1 × 10^−5; κ ± S.D., 1st order rate constant for the hydrolysis ([2]; 20 mM Tris): 4.8 ± 0.5 s^−1 × 10^−5; κ ± S.D., 1st order rate constant for the hydrolysis ([2]; 20 mM phosphate): 0.74 ± 0.09 s^−1 × 10^−5; reaction rate constant k ([2]; Ni^2+ to peptide molar ratio of 1.2, 25° C.): 4.3±0.2 s^−1×10^−5; reaction rate constant k ([2]; Ni^2+ to peptide molar ratio of 5, 25° C.): 4.72±0.01 s^−1×10^−5
Ac-GATWHHKFL-NH2 [TWHH]	0 (a score of 0 if no trace of the product of hydrolysis was seen after 8 hours of incubation)	0 (a score of 0 if no trace of the product of hydrolysis was seen after 8 hours of incubation)	
Ac-GATWHIKFL-NH2 [TWHI]	0 (a score of 0 if no trace of the product of hydrolysis was seen after 8 hours of incubation)	3 (a score of 3 for detection at 8 hours)	
Ac-GATWHKKFL-NH2 [TWHK]	4 (a score of 4 for detection at 6 hours)	4 (a score of 4 for detection at 6 hours)	
Ac-GATWHLKFL-NH2 [TWHL]	0 (a score of 0 if no trace of the product of hydrolysis was seen after 8 hours of incubation)	3 (a score of 3 for detection at 8 hours)	
Ac-GATWHMKFL-NH2 [TWHM]	0 (a score of 0 if no trace of the product of hydrolysis was seen after 8 hours of incubation)	3 (a score of 3 for detection at 8 hours)	
Ac-GATWHNKFL-NH2 [TWHN]	0 (a score of 0 if no trace of the product of hydrolysis was seen after 8 hours of incubation)	0 (a score of 0 if no trace of the product of hydrolysis was seen after 8 hours of incubation)	
Ac-GATWHPKFL-NH2 [TWHP]	0 (a score of 0 if no trace of the product of hydrolysis was seen after 8 hours of incubation)	0 (a score of 0 if no trace of the product of hydrolysis was seen after 8 hours of incubation)	
Ac-GATWHQKFL-NH2 [TWHQ]	0 (a score of 0 if no trace of the product of hydrolysis was seen after 8 hours of incubation)	0 (a score of 0 if no trace of the product of hydrolysis was seen after 8 hours of incubation)	
Ac-GATWHRKFL-NH2 [TWHR]	3 (a score of 3 for detection at 8 hours)	4 (a score of 4 for detection at 6 hours)	
Ac-GATWHSKFL-NH2 [TWHS]	0 (a score of 0 if no trace of the product of hydrolysis was seen after 8 hours of incubation)	0 (a score of 0 if no trace of the product of hydrolysis was seen after 8 hours of incubation)	
Ac-GATWHTKFL-NH2 [TWHT]	0 (a score of 0 if no trace of the product of hydrolysis was seen after 8 hours of incubation)	0 (a score of 0 if no trace of the product of hydrolysis was seen after 8 hours of incubation)	
Ac-GATWHVKFL-NH2 [TWHV]	0 (a score of 0 if no trace of the product of hydrolysis was seen after 8 hours of incubation)	0 (a score of 0 if no trace of the product of hydrolysis was seen after 8 hours of incubation)	
Ac-GATWHWKFL-NH2 [TWHW]	3 (a score of 3 for detection at 8 hours)	4 (a score of 4 for detection at 6 hours)	
Ac-GATYHAKFL-NH2 [TYHA]	0 (a score of 0 if no trace of the product of hydrolysis was seen after 8 hours of incubation)	0 (a score of 0 if no trace of the product of hydrolysis was seen after 8 hours of incubation)	
Ac-GATYHDKFL-NH2 [TYHD]	0 (a score of 0 if no trace of the product of hydrolysis was seen after 8 hours of incubation)	0 (a score of 0 if no trace of the product of hydrolysis was seen after 8 hours of incubation)	

Substance	hydrolysis score from MALDI-TOF screening [1, 3]	hydrolysis score from MALDI-TOF screening [1, 4]	further results
Ac-GATYHEKFL-NH2 [TYHE]	0 (a score of 0 if no trace of the product of hydrolysis was seen after 8 hours of incubation)	0 (a score of 0 if no trace of the product of hydrolysis was seen after 8 hours of incubation)	
Ac-GATYHGKFL-NH2 [TYHG]	0 (a score of 0 if no trace of the product of hydrolysis was seen after 8 hours of incubation)	0 (a score of 0 if no trace of the product of hydrolysis was seen after 8 hours of incubation)	
Ac-GATYHHKFL-NH2 [TYHH]	0 (a score of 0 if no trace of the product of hydrolysis was seen after 8 hours of incubation)	0 (a score of 0 if no trace of the product of hydrolysis was seen after 8 hours of incubation)	
Ac-GATYHIKFL-NH2 [TYHI]	0 (a score of 0 if no trace of the product of hydrolysis was seen after 8 hours of incubation)	0 (a score of 0 if no trace of the product of hydrolysis was seen after 8 hours of incubation)	
Ac-GATYHKKFL-NH2 [TYHK]	3 (a score of 3 for detection at 8 hours)	4 (a score of 4 for detection at 6 hours)	
Ac-GATYHLKFL-NH2 [TYHL]	0 (a score of 0 if no trace of the product of hydrolysis was seen after 8 hours of incubation)	0 (a score of 0 if no trace of the product of hydrolysis was seen after 8 hours of incubation)	
Ac-GATYHMKFL-NH2 [TYHM]	0 (a score of 0 if no trace of the product of hydrolysis was seen after 8 hours of incubation)	0 (a score of 0 if no trace of the product of hydrolysis was seen after 8 hours of incubation)	
Ac-GATYHNKFL-NH2 [TYHN]	0 (a score of 0 if no trace of the product of hydrolysis was seen after 8 hours of incubation)	0 (a score of 0 if no trace of the product of hydrolysis was seen after 8 hours of incubation)	
Ac-GATYHPKFL-NH2 [TYHP]	0 (a score of 0 if no trace of the product of hydrolysis was seen after 8 hours of incubation)	0 (a score of 0 if no trace of the product of hydrolysis was seen after 8 hours of incubation)	
Ac-GATYHQKFL-NH2 [TYHQ]	0 (a score of 0 if no trace of the product of hydrolysis was seen after 8 hours of incubation)	0 (a score of 0 if no trace of the product of hydrolysis was seen after 8 hours of incubation)	
Ac-GATYHRKFL-NH2 [TYHR]	4 (a score of 4 for detection at 6 hours)	4 (a score of 4 for detection at 6 hours)	
Ac-GATYHSKFL-NH2 [TYHS]	0 (a score of 0 if no trace of the product of hydrolysis was seen after 8 hours of incubation)	0 (a score of 0 if no trace of the product of hydrolysis was seen after 8 hours of incubation)	
Ac-GATYHTKFL-NH2 [TYHT]	0 (a score of 0 if no trace of the product of hydrolysis was seen after 8 hours of incubation)	0 (a score of 0 if no trace of the product of hydrolysis was seen after 8 hours of incubation)	
Ac-GATYHVKFL-NH2 [TYHV]	0 (a score of 0 if no trace of the product of hydrolysis was seen after 8 hours of incubation)	0 (a score of 0 if no trace of the product of hydrolysis was seen after 8 hours of incubation)	
Ac-GATYHYKFL-NH2 [TYHY]	0 (a score of 0 if no trace of the product of hydrolysis was seen after 8 hours of incubation)	0 (a score of 0 if no trace of the product of hydrolysis was seen after 8 hours of incubation)	
